Values quoted from earlier work in patent US9308212B2, “Compositions comprising alprazolam for treating primary insomnia and insomnia associated with anxiety states and process for preparing them” (LABORATORIOS BAGO S.A., priority 2008, dated 2016).

SMILES: CO[C@@H]1[C@@H](OC(N)=O)[C@@H](O)[C@H](Oc2ccc3c(O)c(NC(=O)c4ccc(O)c(CC=C(C)C)c4)c(=O)oc3c2C)OC1(C)C [amorphous novobiocine, novobiocine]
- Solubility of the amorphous form relative to the crystalline form: 10 times
